“Also recorded” adds a separate entry of the source.
Experiments:
RKO cells = assay: Western blot analysis in RKO colorectal cancer cells; format: cell-based, human
Experimental: FIG. 5. Various cancer cells were treated for 24 h as shown and tested by Western blot analysis.
(D) Inhibition of HDAC6 protects it from degradation by the addition of a pro-apoptotic agent (staurosporine, ST).
The total amount of vinculin serves as a loading control; Proof of tubulin acetylation serves as proof of the treatment accuracy. The loss of the caspase-3 corresponds to the induction of apoptosis (programmed cell death).
Human colon cancer cell lines RKO (ATCC Accession No: CRL-2577) and HCT-116 (DSMZ Accession No: ACC-581).
(§1) The assay is carried out as described in Buchwald et al. 2010 and Buchwald et al. 2013. Briefly, cells were collected and lysed in NET-N buffer (150 mM NaCl, 1 mM EDTA, 50 mM Tris-HCl (pH 7.8), 0.5% Nonidet P-40 (NP-40), 1 mM phenylmethylsulfonyl fluoride, 0.5 mg/ml leupeptin and 0.5 mg/ml pepstatin) followed by mild sonification on ice. Protein lysate ([…]) was boiled in Laemmli buffer and separated on SDS-polyacrylamide gel electrophoresis for western blotting with specific antibodies. All lysates were assessed by Bradford assay for protein concentrations.

[1] = test system: MV4-11, BV173 and HCT116 cells; assay: Dose and time dependency of MARB1, Western blot method b; format: cell-based, human; settings: 50 nM
Experimental: Cells were seeded on a 6 well plate and incubated as shown. The blots were quantified with Image Studio Lite Version 5.0. (A) 1 Mio cells per sample were seeded and after 2 h adaption time the cells were stimulated as shown, followed by incubation and harvesting of the cells. Tubulin and HSP90 were used as loading control. […] HSP90 and Tubulin were used as loading control. n=1 (C) 200,000 cells were seeded in a 6 well plate and incubated over night for adhesion. B-Actin was used as loading control. n=1
For the examination of the time dependency of MARB1 MV4-11, BV173 and HCT116 cells were tested by western blot. All cells were seeded on a 6 well plate. The blots were quantified with Image Studio Lite Version 5.0. (A) 1 Mio cells per sample were seeded and after 2 h adaption time the cells were stimulated as shown. Following the incubation, the cells were harvested as described earlier. Tubulin and HSP90 were used as loading control. […] HSP90 was used as loading control. […]
Western Blot analysis method b was used for the blots illustrated in FIGS. 6 to 9 and 11: Equal amounts of proteins were separated with a sodium dodecyl sulfate-polyacrylamide gel electrophoresis (SDS-PAGE) using an electrophoresis buffer by Laemmli with 1% SDS. […] Fluorescence coupled secondary antibodies (LI-COR) were used and the signal was measured on the Odyssey to detect the proteins.

nuclear proteins = assay: Nuclear extracts versus cytoplasm after MARB1 stimulation, Western blot; format: cell-based
Experimental: Nuclear extracts were generated and compared to the cytoplasm by western blotting. 6 Mio cells were seeded on a 10 cm dish and incubated 2 h in the medium for adaption. SAHA and […] are pan-HDACi. HSP90 was used as a loading control for the cytoplasm. n=2
SDS-PAGE and Western Blot Analysis Method b
Western Blot analysis method b was used for the blots illustrated in FIGS. 6 to 9 and 11: Equal amounts of proteins were separated with a sodium dodecyl sulfate-polyacrylamide gel electrophoresis (SDS-PAGE) using an electrophoresis buffer by Laemmli with 1% SDS. The proteins were transferred to a nitrocellulose membrane by western blotting using a wet blot chamber. The blots were incubated with the primary antibody, after blocking the membrane for 1 h in 5% non-fat dry milk in tris-buffered saline (TBS) containing 0.05% Tween-20. Fluorescence coupled secondary antibodies (LI-COR) were used and the signal was measured on the Odyssey to detect the proteins.
The cells for nuclear extracts were harvested on ice after stimulation and washed with cold PBS. The pellet was resuspended in lysis buffer A (10 mM HEPES pH 7.9, 1.5 mM MgCl2, 10 mM KCl, 1 mM DTT and protease and phosphatase inhibitor) and incubated for 15 min on ice followed by addition of NP-40 to a final concentration of 1%. […] The protein level was assessed by Bradford assay (Goder et al. 2015).

BV-173 cells = assay: Western blot analysis in BV-173 cells; format: cell-based, human
Experimental: BV-173 cells (BCR-ABL positive leukemic cells) were used as control cells left (Ctl) or with 1 μM MARB1, 2 μM MARB2 or 2 mM VPA treated for 24 h. These concentrations were chosen to achieve equipotent effects on cells which was in preliminary tests (data not shown). Shown are acetylated tubulin-α, α-tubulin, acetylated histone H3, WT1, survivin and β-actin. The total amount of α-tubulin and β-actin were used as loading control. Mr, relative molecular weight in kilodaltons. The degradation of WT1 in patients treated with VPA cells bases on a loss of WT1 mRNA and the increased degradation of WT1 protein by induction of the E2 ubiquitin conjugase UbcH8.
Flow cytometric analysis of the induction of (A) apoptotic DNA fragmentation and (B) Cell cycle analysis of BV 173 cells. The cells were kept as control cells (Ctl), treated with 1 μM or 2 μM MARB1 MARB2 and 0.2 or 0.5 μM imatinib for 48 h. The data was received by two independent experiments. The individual compounds show only slight effects in the used concentrations; whereas their combination can effectively kill leukemic cells. (C) Western blot analysis on data from the BCR-ABL, acetylated tubulin and α-sliced PARP1; the total amount of tubulin-α serves as a loading control. BV-173 cells were treated for 24 h with 1 μM, or 2 μM MARB1 or MARB2.
Human leukemia cell lines BV 173 and K562 with BCR-ABL mutation (Leibniz Institute DSMZ—German Collection of Microorganisms and Cell Cultures, DSMZ Accession Nos: ACC-20 and ACC-10).
as §1

[2] = BV-173, 1 μM MARB1, 2 μM MARB2, 24 h

SMILES: CN1C(=O)C2CN(Cc3c2c2ccccc2n3Cc2ccc(C(=O)NO)cc2)C1=O (stereo not shown) [MARB1, N-Hydroxy-4-((4-methyl-3,5-dioxo-3,4,5,6-tetrahydro-2,6-methano[1,3]diazocino[5,6-b]indol-11(1H)-yl)methyl)benzamide]
- hyperacetylation of tubulin (RKO cells; 0.5 μM, 24 h): sufficient to induce hyperacetylation of tubulin
- HDAC6 loss in staurosporin (ST)-treated cells (RKO cells; with staurosporine): protects ST-treated RKO cells
- acetylated tubulin ([1]; incubation for 30 min): increase of acetylated tubulin is detectable
- inhibition compared with Tubastatin A ([1]; short time course): faster and at later time points much more effective than Tubastatin A
- effects on nuclear proteins (nuclear proteins): no detectable effects
- acetylation of tubulin-α (BV-173 cells; [2]): hyperacetylation of tubulin-α
- expression of survivin (BV-173 cells; [2]): reduction of the expression of survivin
- acetylation of histone H3 (BV-173 cells; BV-173, 1 μM MARB1, 2 μM MARB2 or 2 mM VPA, 24 h): Neither MARB1, nor MARB2 cause these alterations
- BCR-ABL expression on the protein level (BV-173 cells; BV-173, compound alone, 24 h): do not affect
- BCR-ABL stabilization/degradation in combination with imatinib (BV-173 cells; BV-173, with imatinib, 24 h): significantly inhibit the unwanted stabilization of BCR-ABL; also recorded: significant degradation of BCR-ABL

Reference: patent publication US10106540B2, “HDAC6 inhibitors and their uses” (Universität Regensburg, priority 2014, dated 2018)
